# Results reported in US20250057808A1, “COMPOSITION COMPRISING BETA LACTAM FOR TREATING ALCOHOL DEPENDENCE AND ALCOHOL ASSOCIATED DISEASES OR CONDITIONS” (Temple University of the Commonwealth System of Higher …, priority 2023, published 2025).
# Entries after “also recorded” stand apart in the source; their conditions may differ.
# Legend:
# [1] = earlier and literature studies in rats; cited from earlier work
# xCT [2] = settings: earlier studies, chronic ethanol; cited from earlier work
# GLT-1 [3] = settings: earlier studies, chronic ethanol; cited from earlier work
# mGluR5 = test: Western blot mGluR5 expression in NAc-core and NAc-shell; type: in vivo, P rats; settings: MC-100093 50 mg/kg or ceftriaxone 200 mg/kg i.p. 5 days
# Procedure: (§1) We used micro-punch procedure to dissect the subregions of the NAc such as NAc-core and NAc-shell as well as the subregions of prefrontal cortex such as infralimbic (IL) and prelimbic (PL) from the brain on day 6 after the last injection day. P rats were removed from the cage and rapidly euthanized by CO2 inhalation followed by rapid decapitation with a guillotine. Brains were isolated and immediately frozen on dry ice and stored at −80° C. The stereotaxic coordinates provided by Paxinos and colleague's rat brain stereotactic atlas was used to isolate NAc-core and NAc-shell using a cryostat apparatus (−20° C.), which then kept at −80° C. for later western blot analyses.
# (§2) Western Blot assay was performed to measure changes in the expression of GLT-1, xCT, mGluR1, mGluR5, PPAR-α, PPARγ, GAPDH and β-tubulin in the NAc-core and NAc-shell as described in previous publications. A lysis buffer containing protease and phosphatase inhibitors was used to generate a homogenate of liver, Nac-core, and Nac-shell samples. The amount of protein was quantified using a detergent compatible protein assay (Bio-Rad, Hercules, CA, USA) for each sample. Samples were mixed with laemmli dye and loaded with equal amounts on polyacrylamide gels (10%), which separated the proteins using electrophoresis. After that, polyvinylidene difluoride (PVDF) membranes were used to transfer the proteins electrophoretically from the gels. Membranes were incubated in 5% free-fat milk in Tris-buffered saline with Tween-20 (TBST) for 30-60 minutes at room temperature. Membranes were then incubated with appropriate primary antibodies overnight at 4° C.: rabbit anti-GLT-1 (1:5000, Abcam, ab41621), rabbit anti-xCT (1:2000, Abcam, ab175186), rabbit anti-mGluR1 (1:1000, Abcam, ab82211), rabbit anti-mGluR5 (1:1000, Abcam, ab76316), rabbit anti-PPAR-α (1:1000, Abcam, ab24509), and rabbit anti-PPARγ (1:1000, Abcam, ab209350). Mouse anti-β-tubulin (1:1000; BioLegend) was used as a loading control antibody for the brain samples and rabbit anti-GAPDH (1:5000; cell signaling) was used as a loading control antibody for the liver samples. Membranes were washed five times on the next day with TBST followed by incubation with appropriate secondary antibody (1:5000) for 90 minutes at room temperature. Chemiluminescent reagents (Super Signal West Pico, Pierce Inc.) were used to detect the proteins using a GeneSys imaging system to develop the digitized blot images. Water-control group data were represented as 100% and all other values were expressed relative to control group to detect changes in the expression of the protein of interest in the brain and liver samples.
# (§3) All statistical analyses were conducted with Graphpad Prism software, with p-values of 0.05 or less being statistically significant. […]
# mGluR1 = test: Western blot mGluR1 expression in NAc-core and NAc-shell; type: in vivo, P rats; settings: MC-100093 50 mg/kg or ceftriaxone 200 mg/kg i.p. 5 days; among all groups
# Procedure: as §1, §2, §3
# xCT [4] = test: Western blot xCT expression in NAc-core, NAc-shell and liver (50 mg/kg study); type: in vivo, P rats; settings: MC-100093 50 mg/kg or ceftriaxone 200 mg/kg i.p. 5 days
# Procedure: as §1, §2
# (§4) All statistical analyses were conducted with Graphpad Prism software, with p-values of 0.05 or less being statistically significant. We performed a two-way (mixed model) ANOVA followed by Bonferroni multiple comparison post-hoc test to analyze 24 h ethanol consumption, 24 h water consumption, and daily body weight. For the Western blot and oil red O staining analysis, we performed one-way ANOVA with Newman-Keuls as a post hoc multiple comparison test to measure differences between groups as a percentage (relative to control values).
# PPAR-γ = test: Western blot PPAR-γ expression in liver; type: in vivo, P rats; settings: MC-100093 50 mg/kg or ceftriaxone 200 mg/kg i.p. 5 days; between all groups
# Procedure: Western Blot assay was performed to measure changes in the expression of GLT-1, xCT, mGluR1, mGluR5, PPAR-α, PPARγ, GAPDH and β-tubulin in the NAc-core and NAc-shell as described in previous publications. A lysis buffer containing protease and phosphatase inhibitors was used to generate a homogenate of liver, Nac-core, and Nac-shell samples. The amount of protein was quantified using a detergent compatible protein assay (Bio-Rad, Hercules, CA, USA) for each sample. Samples were mixed with laemmli dye and loaded with equal amounts on polyacrylamide gels (10%), which separated the proteins using electrophoresis. After that, polyvinylidene difluoride (PVDF) membranes were used to transfer the proteins electrophoretically from the gels. Membranes were incubated in 5% free-fat milk in Tris-buffered saline with Tween-20 (TBST) for 30-60 minutes at room temperature. Membranes were then incubated with appropriate primary antibodies overnight at 4° C.: rabbit anti-GLT-1 (1:5000, Abcam, ab41621), rabbit anti-xCT (1:2000, Abcam, ab175186), rabbit anti-mGluR1 (1:1000, Abcam, ab82211), rabbit anti-mGluR5 (1:1000, Abcam, ab76316), rabbit anti-PPAR-α (1:1000, Abcam, ab24509), and rabbit anti-PPARγ (1:1000, Abcam, ab209350). […]
# GLT-1 [5] = test: Western blot GLT-1 expression in NAc-core, NAc-shell and liver (50 mg/kg study); type: in vivo, P rats; settings: MC-100093 50 mg/kg or ceftriaxone 200 mg/kg i.p. 5 days
# Procedure: as §1, §2, §4
# PPAR-α = test: Western blot PPAR-α expression in NAc-core, NAc-shell and liver; type: in vivo, P rats; settings: MC-100093 50 mg/kg or ceftriaxone 200 mg/kg i.p. 5 days; among all groups
# Procedure: as §1, §2, §3
# [6] = Ethanol drinking paradigm, three-bottle choice (MC-100093 50 mg/kg vs ceftriaxone 200 mg/kg); type: in vivo, P rats
# Procedure: P rats were received from Indiana University School of Medicine (Indianapolis, IN, USA), and were housed in a 21° C. on a 12/12 h light/dark cycle-maintained room where they had free access to water and food. All experimental procedures were approved by the Institutional Animal Care and Use Committee (IACUC) of The University of Toledo, in accordance with the guidelines governing the use of animals in research of the National Institutes of Health as described in the Guidefor the Care and Use of Laboratory Animals.
# We used an ethanol drinking paradigm as described previously by Alhaddad, et al. (2014). Briefly, animals started the experimental drinking procedure at age of 90 days. The animals had five weeks of exposure to continuous three-bottle choice drinking, 0%, 15% and 30%, v/v ethanol in water, available concurrently. Daily measurement of ethanol intake was performed (g of ethanol intake/kg of body weight/day). We measured the baseline ethanol drinking by average the intake during the last three weeks. Three groups of P rats (n=8-9/group) exposed to the five weeks ethanol exposure. At week 6, rats in each group received daily intraperitoneal injection of either MC-100093 at dose of 50 mg/kg (Ethanol-MC group), Ceftriaxone at dose of 200 mg/kg (Ethanol-CEF group, which also serves as positive control), or equivolume of saline vehicle (Ethanol group) for five days. This paradigm results in pharmacologically relevant blood alcohol concentration (50-200 mg %). Following the criteria for the development of ethanol dependence, rats whose average ethanol intake <4 g/kg/day were excluded from the study. Beside the ethanol exposed groups, another group of P rats (n=8) exposed to only water and food throughout the exposure procedures (control group).
# as §4
# fat content in the liver = test: Liver Oil Red O staining (fat content); type: in vivo, P rats; settings: MC-100093 50 mg/kg or ceftriaxone 200 mg/kg i.p. 5 days, control, ethanol, ethanol-CEF groups
# Procedure: To measure the fat content in the liver sections, we used Oil Red O (Sigma, CAS Number 1320-06-5) staining on 10 μm thick formalin-fixed liver sections and placed in slides for further staining. The slides were stained with freshly prepared Oil Red O working solution 15 minutes then rinsed with 60% isopropanol. Slides were then rinsed with distilled water and mounted in aqueous mounting media and prepared for imaging. The degree of Oil Red O staining was determined at 20× magnification using a color video camera attached to an Olympus VS120 slide scanning microscope. Olympus OlyVIA software was used to analyze the images. The lipid droplets were quantified using Image J pro (NIH). Data are presented as the mean+SEM of the Oil Red O staining for each group.
# as §4
# [7] = ceftriaxone 200 mg/kg i.p. vs MC-100093 50 mg/kg i.p., days 2 through 5
compound,measurement,setting,value
Cc1ccc(C)c(OCCCC(C)(C)C(=O)O)c1 [Gemfibrozil],Ethanol drinking behavior / consumption,[1],reduced ethanol drinking behavior in rats
CC1CC=NN1C(=O)c1cccnc1 (centres unmarked) [MS-153],Ethanol drinking behavior / consumption,[1],attenuated ethanol drinking behaviors
same,xCT expression in the NAc,xCT [2],upregulated GLT-1 and xCT expression in the NAc
same,GLT-1 expression in the NAc,GLT-1 [3],upregulated GLT-1 and xCT expression in the NAc
"CO/N=C(\C(=O)N[C@@H]1C(=O)N2C(C(=O)O)=C(CSc3nc(=O)c(=O)[nH]n3C)CS[C@H]12)c1csc(N)n1 [Ceftriaxone, reference compound]",Protein expression of mGluR5 in the NAc-core,mGluR5; among all groups,non-significant difference; also recorded: no significant difference
same,Protein expression of mGluR5 in the NAc-shell,mGluR5; vs control or ethanol groups,"no significant change in the expression of mGluR5; also recorded: significantly downregulated in ethanol group compared to control, Ethanol-MC (50 mg/kg), and Ethanol-CEF (200 mg/kg) groups; also recorded: normalizing levels of mGluR5"
same,Protein expression of mGluR1 in the NAc-core,mGluR1,non-significant difference; also recorded: no significant difference
same,Protein expression of mGluR1 in the NAc-shell,mGluR1,non-significant differences; also recorded: no significant difference
same,Protein expression of xCT in the NAc-core,xCT [4]; among all groups,non-significant difference; also recorded: no significant difference
same,Protein expression of xCT in the liver,xCT [4]; between all groups,no significant differences
same,Protein expression of xCT in the NAc-shell,xCT [4]; vs Ethanol group,significantly higher level of xCT; also recorded: significantly increased xCT expression
same,Protein expression of PPAR-γ in the liver,PPAR-γ,not changed significantly
same,Protein expression of GLT-1 in the liver,GLT-1 [5],normalized GLT-1 level; also recorded: normalize the PPAR-α and GLT-1 levels in the liver
same,Protein expression of GLT-1 in the NAc-core,"GLT-1 [5]; among Control, Ethanol, Ethanol-MC, Ethanol-CEF",non-significant difference; also recorded: no significant difference
same,Protein expression of GLT-1 in the NAc-shell,GLT-1 [5]; vs Ethanol group,significantly increased
same,Protein expression of PPAR-α in the NAc-core,PPAR-α,non-significant differences; also recorded: did not detect significant changes
same,Protein expression of PPAR-α in the NAc-shell,PPAR-α,non-significant differences; also recorded: did not detect significant changes
same,Ethanol drinking behavior / consumption,[1],decreased ethanol consumption in rats; also recorded: attenuated ethanol drinking behaviors
same,Body weight (grams),[6]; MC-100093 50 mg/kg i.p. or ceftriaxone 200 mg/kg i.p. 5 days,"Neither MC-100093 (50 mg/kg, i.p.) nor Ceftriaxone (200 mg/kg, i.p.) treatment has significant effect; also recorded: no significant effects"
same,Water intake (mL/day),"[6]; MC-100093 50 mg/kg i.p. or ceftriaxone 200 mg/kg i.p. 5 days, vs Ethanol-Saline group (MC-100093: at day 5 only)",significant increase in water consumption from day 1 through day 5; also recorded: significant increase in water consumption from day 2 through day 5
same,Ethanol consumption (g/kg of average body weight/24 hr),"[6]; P rats after 5 wk ethanol, MC-100093 50 mg/kg i.p. or ceftriaxone 200 mg/kg i.p. daily 5 days, vs Ethanol-Saline group",significant decrease in ethanol consumption from day 1 through day 5; also recorded: significantly reduced ethanol consumption from day 2 through day 5; also recorded: attenuated ethanol drinking behavior
same,"Ethanol consumption, Ethanol-Ceftriaxone compared to Ethanol-MC group",[6]; [7],significantly lower; also recorded: attenuate drinking behavior to a greater extent than MC-100093
same,"Water consumption, Ethanol-Ceftriaxone compared to Ethanol-MC group",[6]; [7],significantly higher
same,xCT expression in the NAc,xCT [2],attenuation of downregulation of GLT-1 as well as xCT expression; also recorded: upregulated GLT-1 and xCT expression in the NAc
same,GLT-1 expression in the NAc,GLT-1 [3],attenuation of downregulation of GLT-1 as well as xCT expression; also recorded: upregulated GLT-1 and xCT expression in the NAc
same,Liver fat content (Oil Red O stained fat droplets),fat content in the liver,"no significant difference in fat content between control, ethanol-MC, and ethanol-CEF groups; also recorded: significantly higher fat droplet content in ethanol group (p<0.05) compared to control, ethanol-MC or ethanol-CEF groups; also recorded: alleviated the liver steatosis"
